The values below are quoted from earlier work in US20180191016A1, “FLOW BATTERIES INC[…] PHE[…] WITHIN AN AQUEOUS ELECTROLYTE SOLUTION” (LOCKHEED MARTIN ADVANCED ENERGY STORAGE, LLC, priority 2017, published 2018).

Each structure is given as a SMILES string.

The conditions of the data set: compared to a reversible hydrogen electrode.

Consider `c1ccc2c(c1)Nc1ccccc1S2` [phenothiazine], for which the standard reduction potential result is reported as “approximately +0.9 V”.
